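Where inhibition never reached the appropriate level, the endpoint shown equals the highest concentration tested. Otherwise, values were interpolated linearly from a five-concentration, 48-hour dose response in 96-well plates. The concentration for full growth arrest is given as TGI.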
Columns and labels:
Assay in all cases: NCI-60 cell line screen, 48 h
786-0 renal = system: 786-0 renal
A498 renal = system: A498 renal
A549 NSCLC = system: A549 NSCLC
ACHN renal = system: ACHN renal
BT-549 breast = system: BT-549 breast
CAKI-1 renal = system: CAKI-1 renal
CCRF-CEM leukemia = system: CCRF-CEM leukemia
COLO 205 colon = system: COLO 205 colon
DU-145 prostate = system: DU-145 prostate
EKVX NSCLC = system: EKVX NSCLC
HCC-2998 colon = system: HCC-2998 colon
HCT-116 colon = system: HCT-116 colon
HCT-15 colon = system: HCT-15 colon
HL-60(TB) leukemia = system: HL-60(TB) leukemia
HOP-62 NSCLC = system: HOP-62 NSCLC
HOP-92 NSCLC = system: HOP-92 NSCLC
HS 578T breast = system: HS 578T breast
HT29 colon = system: HT29 colon
IGROV1 ovarian = system: IGROV1 ovarian
K-562 leukemia = system: K-562 leukemia
KM12 colon = system: KM12 colon
LOX IMVI melanoma = system: LOX IMVI melanoma
MALME-3M melanoma = system: MALME-3M melanoma
MCF7 breast = system: MCF7 breast
MDA-MB-231 breast = system: MDA-MB-231 breast
MDA-MB-435 = system: MDA-MB-435
MDA-N = system: MDA-N
MOLT-4 leukemia = system: MOLT-4 leukemia
NCI-H226 lung = system: NCI-H226 lung
NCI-H23 lung = system: NCI-H23 lung
NCI-H460 lung = system: NCI-H460 lung
NCI-H522 lung = system: NCI-H522 lung
NCI/ADR-RES ovarian = system: NCI/ADR-RES ovarian
OVCAR-3 ovarian = system: OVCAR-3 ovarian
OVCAR-4 ovarian = system: OVCAR-4 ovarian
OVCAR-5 ovarian = system: OVCAR-5 ovarian
OVCAR-8 ovarian = system: OVCAR-8 ovarian
PC-3 prostate = system: PC-3 prostate
RPMI-8226 leukemia = system: RPMI-8226 leukemia
RXF 393 renal = system: RXF 393 renal
SF-268 CNS = system: SF-268 CNS
SF-295 CNS = system: SF-295 CNS
SF-539 CNS = system: SF-539 CNS
SK-MEL-28 melanoma = system: SK-MEL-28 melanoma
SK-MEL-5 melanoma = system: SK-MEL-5 melanoma
SN12C renal = system: SN12C renal
SNB-19 CNS = system: SNB-19 CNS
SNB-75 CNS = system: SNB-75 CNS
SR leukemia = system: SR leukemia
SW-620 colon = system: SW-620 colon
TK-10 renal = system: TK-10 renal
U251 CNS = system: U251 CNS
UACC-257 melanoma = system: UACC-257 melanoma
UO-31 renal = system: UO-31 renal
SK-MEL-2 melanoma = system: SK-MEL-2 melanoma
SK-OV-3 ovarian = system: SK-OV-3 ovarian
T-47D breast = system: T-47D breast
UACC-62 melanoma = system: UACC-62 melanoma

With O=C(NCCc1ccccc1)c1c(O)c2ccccc2[nH]c1=O the TGI (786-0 renal) was > 100 µM, the TGI (A498 renal) was > 100 µM and the TGI (A549 NSCLC) was > 100 µM. The TGI (ACHN renal) was > 100 µM, the TGI (BT-549 breast) was > 100 µM and the TGI (CAKI-1 renal) was > 100 µM. For the same compound, the TGI (CCRF-CEM leukemia) was > 100 µM, the TGI (COLO 205 colon) was > 100 µM and the TGI (DU-145 prostate) was > 100 µM. For the same compound, the TGI (EKVX NSCLC) was > 100 µM, the TGI (HCC-2998 colon) was > 100 µM and the TGI (HCT-116 colon) was > 100 µM. For the same compound, the TGI (HCT-15 colon) was > 100 µM, the TGI (HL-60(TB) leukemia) was > 100 µM and the TGI (HOP-62 NSCLC) was > 100 µM. The TGI (HOP-92 NSCLC) was > 100 µM, the TGI (HS 578T breast) was > 100 µM and the TGI (HT29 colon) was > 100 µM. The TGI (IGROV1 ovarian) was > 100 µM, the TGI (K-562 leukemia) was > 100 µM and the TGI (KM12 colon) was > 100 µM. The TGI (LOX IMVI melanoma) was > 100 µM, the TGI (MALME-3M melanoma) was > 100 µM and the TGI (MCF7 breast) was > 100 µM. For the same compound, the TGI (MDA-MB-231 breast) was > 100 µM, the TGI (MDA-MB-435) was > 100 µM and the TGI (MDA-N) was > 100 µM. The TGI (MOLT-4 leukemia) was > 100 µM, the TGI (NCI-H226 lung) was > 100 µM and the TGI (NCI-H23 lung) was > 100 µM. The TGI (NCI-H460 lung) was > 100 µM, the TGI (NCI-H522 lung) was > 100 µM and the TGI (NCI/ADR-RES ovarian) was > 100 µM. The TGI (OVCAR-3 ovarian) was > 100 µM, the TGI (OVCAR-4 ovarian) was > 100 µM and the TGI (OVCAR-5 ovarian) was > 100 µM. The TGI (OVCAR-8 ovarian) was > 100 µM, the TGI (PC-3 prostate) was > 100 µM and the TGI (RPMI-8226 leukemia) was > 100 µM. The TGI (RXF 393 renal) was > 100 µM, the TGI (SF-268 CNS) was > 100 µM and the TGI (SF-295 CNS) was > 100 µM. The TGI (SF-539 CNS) was > 100 µM, the TGI (SK-MEL-28 melanoma) was > 100 µM and the TGI (SK-MEL-5 melanoma) was > 100 µM. The TGI (SN12C renal) was > 100 µM, the TGI (SNB-19 CNS) was > 100 µM and the TGI (SNB-75 CNS) was > 100 µM. The TGI (SR leukemia) was > 100 µM, the TGI (SW-620 colon) was > 100 µM and the TGI (TK-10 renal) was > 100 µM. The TGI (U251 CNS) was > 100 µM, the TGI (UACC-257 melanoma) was > 100 µM and the TGI (UO-31 renal) was > 100 µM.

C/C(=N\NC(=S)Nc1ccc(C)cc1)c1nc2ncccc2[nH]1 showed a TGI (786-0 renal) of 18.7 µM, a TGI (A498 renal) of 23.4 µM and a TGI (A549 NSCLC) of 44.7 µM. The TGI (ACHN renal) was 14.3 µM, the TGI (BT-549 breast) was 11.8 µM and the TGI (CAKI-1 renal) was > 100 µM. It also gave a TGI (CCRF-CEM leukemia) of 11.5 µM, a TGI (COLO 205 colon) of 17.6 µM and a TGI (DU-145 prostate) of 13.6 µM. For the same compound, the TGI (EKVX NSCLC) was 7.27 µM, the TGI (HCC-2998 colon) was 20.2 µM and the TGI (HCT-116 colon) was 14.3 µM. The TGI (HCT-15 colon) was 19.4 µM, the TGI (HOP-62 NSCLC) was 39.2 µM and the TGI (HOP-92 NSCLC) was 24.1 µM. It also gave a TGI (HS 578T breast) of 58.9 µM, a TGI (HT29 colon) of 14.5 µM and a TGI (IGROV1 ovarian) of 17.3 µM. For the same compound, the TGI (K-562 leukemia) was 24.2 µM, the TGI (KM12 colon) was 32 µM and the TGI (LOX IMVI melanoma) was 8.29 µM. For the same compound, the TGI (MALME-3M melanoma) was 37.5 µM, the TGI (MCF7 breast) was 13.5 µM and the TGI (MDA-MB-231 breast) was > 100 µM. For the same compound, the TGI (MDA-MB-435) was 13.3 µM, the TGI (MDA-N) was 23.8 µM and the TGI (MOLT-4 leukemia) was 17.6 µM. It also gave a TGI (NCI-H226 lung) of 8.01 µM, a TGI (NCI-H23 lung) of 19.8 µM and a TGI (NCI-H460 lung) of 13.6 µM. The TGI (NCI/ADR-RES ovarian) was > 100 µM, the TGI (OVCAR-3 ovarian) was 9.71 µM and the TGI (OVCAR-4 ovarian) was 16.7 µM. The TGI (OVCAR-5 ovarian) was 18.6 µM, the TGI (OVCAR-8 ovarian) was 12.3 µM and the TGI (PC-3 prostate) was 32.5 µM. For the same compound, the TGI (RPMI-8226 leukemia) was > 100 µM, the TGI (SF-268 CNS) was 35.7 µM and the TGI (SF-539 CNS) was 5.71 µM. For the same compound, the TGI (SK-MEL-2 melanoma) was 25.4 µM, the TGI (SK-MEL-28 melanoma) was 18.4 µM and the TGI (SK-MEL-5 melanoma) was 4.73 µM. For the same compound, the TGI (SK-OV-3 ovarian) was 58.3 µM, the TGI (SN12C renal) was 30.8 µM and the TGI (SNB-19 CNS) was > 100 µM. The TGI (SNB-75 CNS) was 22.5 µM, the TGI (SR leukemia) was > 100 µM and the TGI (SW-620 colon) was 24 µM. For the same compound, the TGI (T-47D breast) was 18 µM, the TGI (TK-10 renal) was 37 µM and the TGI (U251 CNS) was 15.4 µM. For the same compound, the TGI (UACC-257 melanoma) was 9.48 µM, the TGI (UACC-62 melanoma) was 15 µM and the TGI (UO-31 renal) was 4.05 µM.

Source: PubChem BioAssay (NCI)
